Reference: article PMC6324813, “Biological evaluation of isoflavonoids from Genista halacsyi using estrogen-target cells: Activities of glucosides compared to aglycones” (PLoS ONE, 2019)

Key:
Ishikawa cells = assay: Induction of AlkP expression in Ishikawa cells; format: cell-based, human; conditions: for EC (25% of 0.1 nM E2 effect) / activation at 1 µM: 72 h; for EC (25% of 0.1 nM E2 effect): concentration required to achieve 25% of the effect of 0.1 nM E2, read-out: Induction of Alkaline Phosphatase Expression (Ishikawa cells) EC25E2; for activation at 1 µM: read-out: Induction of AlkP expression (Ishikawa cells) Agonism at 1μΜ (% of 0.1nM E2)
Protocol: Induction of AlkP expression of Ishikawa cells is considered as a reliable in vitro measure of estrogenic activity. Assessment of AlkP expression in Ishikawa cells was carried as already described. Briefly, the cells were plated in 96-well plates at a density of 12,000 cells per well in phenol-red-free MEM supplemented with 1 μg/mL insulin and 5% DCC-FBS. […] Data on the dependence of AlkP activity on isoflavonoid concentration were curve fitted using SigmaPlot10 (SPSS Inc) and the numerical data of curve fitting were used to determine AUC as described above, using for the calculation of AUC of a particular AlkP response the very same concentration used for the respective luciferase response. The AUC of AlkP responses of the isoflavonoids of a group were expressed as % of the AUC of the luciferase response of the respective archetypal isoflavone.

MCF-7 cells = assay: MCF-7 cell proliferation (MTT); format: cell-based, human; conditions: for activation at 1 µM: Homo sapiens, MCF7, 72 h, read-out: Induction of cell proliferation (MCF-7 cells) Agonism at 1μΜ (% of 0.1nM E2)
Protocol: Test compound effects on the proliferation of MCF-7 and MDA-MB-231 cells were assessed as previously described.

MDA-MB-231 cells = assay: MDA-MB-231 cell proliferation (MTT); format: cell-based; conditions: 0.1 nM estradiol, 1 μM ICI182,780, isoflavonoids 1 μM
Protocol: Test compound effects on the proliferation of MCF-7 and MDA-MB-231 cells were assessed as previously described. […] Relative numbers of cells exposed to estradiol or to ICI182,780 acted as positive and negative control, respectively.

RAW 264.7 cells [1] = assay: Differentiation of RAW 264.7 cells to osteoclasts, TRAP activity; format: cell-based, mouse; conditions: RANKL 50 ng/ml + E2 1 nM or compound 1 μM; 3 days; DF plus vehicle = 100
Protocol: Clones of RAW 264.7 cells competent to differentiate to multinuclear osteoclasts upon activation with RANKL provide valuable information on the regulation of osteoclast differentiation. Differentiation-competent RAW cells (ATCC TIB-71) were seeded in 96-well plates at a density of 9,600 cells per well. The cells were plated in the presence of test compounds or compound diluent (0.1% DMSO) and, 4 h after plating, were exposed for 3 days to 50 ng/ml RANKL or to plain medium. Osteoclastic differentiation was assessed via induction of Tartrate-Resistant Acid Phosphatase (TRAP) activity. The cells were washed with PBS and incubated with 25μl lysis buffer (0.4 M NaCl, 25 mM Hepes pH 7.7, 1.5 mM MgCl2, 0.2 mM EDTA, 1% NP40) for 5 min on ice.

HT22 cells [2] = assay: Glutamate toxicity (oxytosis) of HT22 neuronal cells (MTT); conditions: for viability of HT22 cells under normal growth conditions compared to vehicle-treated cells: no glutamate
Protocol: Glutamate-challenged HT22 cells suffer oxidative stress-induced cell death (oxytosis) within 24 h due to glutathione depletion and consequent massive accumulation of ROS [42]. The efficacy of test compounds to prevent oxytosis of HT22 cells was assessed as already described. Briefly, HT22 cells were plated in 96-well flat bottom plates at a density of 4,000 cells per well in 100 μl of DMEM (low glucose) containing 2% FBS. 24 h after plating, the cells were treated with test compounds or compound diluent (0.1% DMSO) and then challenged with 5 mM glutamate for 24 h. […] Non-challenged cells served to assess test compound effects on cell viability, whereas challenged cells served to assess the neuroprotective activity of test compounds.

TNFα mRNA [3] = assay: LPS-induced TNFα mRNA expression in RAW 264.7 cells (RT-qPCR); format: cell-based, mouse
Protocol: To assess TNFα mRNA expression, RAW 264.7 cells were plated in 6-well plates in alpha-MEM medium supplemented with 10% DCC-FBS, at a density of 300,000 cells per well, maintained in culture for 72 h and then exposed to vehicle (0.3% DMSO) or 3 μΜ test compound for 20 min or 24 h prior to stimulation with 100 ng/ml lipopolysaccharide (Sigma L4391) for 1 h. Extraction of total RNA, reverse transcription (RT) and quantitative PCR (qPCR) analysis of mRNA expression levels were performed as previously described. Relative gene expression levels were calculated by the comparative Ct method using the formula 2^(-ΔCt). Tumor necrosis factor alpha (TNFα) mRNA levels were normalized to the respective levels of […] (GAPDH). Test compound effects on the relative number of viable cells were assessed using crystal violet and a Safire II microplate reader (Tecan) as previously described. […] The following primers were used: […]

RAW 264.7 cells [4] = conditions: cited from earlier work
HT22 cells [5] = conditions: cited from earlier work; for prevention of oxytosis of glutamate-challenged HT22 cells: 1 μM estradiol or 2.5 μM genistein
TNFα mRNA [6] = conditions: cited from earlier work
MC3T3-E1 cells [7] = assay: Differentiation of MC3T3-E1 cells to osteoblasts, AlkP activity; format: cell-based, mouse; conditions: DF + E2 1 nM or compound 1 μM; 6 days; DF plus vehicle = 100
Protocol: (§1) Differentiation of MC3T3-E1 cells was carried out in 96-well plates using 3,300 cells per well and was assessed via induction of, i) Alkaline Phosphatase (AlkP) activity after 6 days of treatment and, ii) mineralization of extracellular matrix after 21 days of treatment. Briefly, 24 h after plating, the cells were incubated with test compounds or vehicle i.e. the compound diluent (0.1% DMSO) and then exposed for 6 days to differentiation medium in presence or absence of differentiation factors (cf. Cell culture) with a change to fresh compounds and medium in 3 days. AlkP activity was assessed at 405 nm in a Safire II microplate reader using as substrate p-nitrophenyl-phosphate (pNPP, Sigma-Aldrich) as already described. Mineralization of MC3T3 cells was assessed by staining with Alizarin red (Fluka). Cells were cultured and treated as described above for 21 days, with media and test compounds changed every 3 days, and calcium phosphate deposition was assayed as described by Gregory et al.. Briefly, the cells were washed twice with PBS and fixed with 70% ethanol for 15 min on ice. The cells were stained with Alizarin red solution (40 mM, pH 4.2) for 30 min at room temperature, washed twice with distilled water and once with PBS. The dye from the stained mineral deposits was extracted with 33% acetic acid and the absorbance was measured at 405 nm using a Safire II microplate reader (Tecan).

MC3T3-E1 cells [8] = assay: Mineralization of MC3T3-E1 cells, Alizarin red staining; format: cell-based, mouse; conditions: DF + E2 1 nM or compound 1 μM; 21 days; DF plus vehicle = 100
Protocol: as §1, with “Differentiation of MC3T3-E1 cells to osteoblasts has been extensively used to screen for compounds that may promote bone formation. Differentiation” for “Differentiation”

ERβ = ERβ (Homo sapiens, UniProt Q92731); assay: ERE-dependent luciferase gene transcription in HEK:ERβ cells; format: cell-based; parameters: expressed in transfected cells; host or cells: HEK-293 (HEK:ERβ clone, with pERE-tk-Luciferase); conditions: compounds 1 μM, estradiol 0.1 nM; 18 h
Protocol: Assessment of ER/ERE-dependent luciferase gene transcription in MCF-7:D5L (express ERα) and HEK:ERβ cells (express ERβ) and determination of ER transcriptional agonism was carried as already described. Briefly, the cells were plated in 96-well plates at a density of 12,000 cells per well in phenol-red-free MEM (MCF-7:D5L cells) or phenol-red-free DMEM (HEK:ERβ cells) supplemented with 1 μg/mL insulin and 5% DCC-FBS. […] The AUC of the isoflavonoids of each group were then expressed as % of the AUC of the respective archetypal isoflavone. Since AUC data combine the efficacy as well as the potency of cell response into a single parameter, the %AUC data were considered here as a more reliable measure of relative ER/ERE-dependent luciferase expression of the test compounds.

[9] = 1 μM ICI182,780, isoflavonoids 1 μM
[10] = 1 nM estradiol or 1 μM compound

Chain of ERβ (Q92731 whole entry): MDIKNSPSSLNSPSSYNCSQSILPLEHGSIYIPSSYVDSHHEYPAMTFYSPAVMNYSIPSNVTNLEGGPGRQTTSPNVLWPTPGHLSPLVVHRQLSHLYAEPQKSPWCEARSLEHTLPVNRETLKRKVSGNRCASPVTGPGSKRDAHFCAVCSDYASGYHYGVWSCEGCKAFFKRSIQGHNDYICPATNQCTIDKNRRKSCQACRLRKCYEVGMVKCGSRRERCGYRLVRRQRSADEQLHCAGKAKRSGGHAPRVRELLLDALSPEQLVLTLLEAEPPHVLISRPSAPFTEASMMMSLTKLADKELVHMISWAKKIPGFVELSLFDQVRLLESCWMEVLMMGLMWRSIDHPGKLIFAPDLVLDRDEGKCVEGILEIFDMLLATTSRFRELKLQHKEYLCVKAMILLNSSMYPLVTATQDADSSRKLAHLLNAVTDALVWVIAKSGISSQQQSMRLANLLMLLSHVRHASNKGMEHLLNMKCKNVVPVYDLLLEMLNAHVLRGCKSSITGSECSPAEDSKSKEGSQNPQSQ

SMILES | proliferation of MDA-MB-231 cells (MDA-MB-231 cells) | EC (25% of 0.1 nM E2 effect) (Ishikawa cells; Homo sapiens, Ishikawa) [µM] | activation at 1 µM (Ishikawa cells; Homo sapiens, Ishikawa) [%] | activation at 1 µM (MCF-7 cells) [%] | Differentiation of RAW 267.4 cells, TRAP expression (%) (RAW 264.7 cells [1]) | viability of HT22 cells under normal growth conditions compared to vehicle-treated cells (HT22 cells [2]; [10]) | concentrations that inhibit osteoclastic differentiation of RAW 264.7 cells (RAW 264.7 cells [4]) [µM] | prevention of oxytosis of glutamate-challenged HT22 cells (HT22 cells [5]) | other results
C[C@]12CC[C@@H]3c4ccc(O)cc4C[C@@H](CCCCCCCCC[S+]([O-])CCCC(F)(F)C(F)(F)F)[C@H]3[C@@H]1CC[C@@H]2O (stereo partly shown) [ICI182,780, reference compound] | not affected | – | – | – | – | – | – | – | suppression of isoflavonoid-induced AlkP expression (Ishikawa cells; [9]): fully suppressed; suppression of isoflavonoid cell proliferation effects (MCF-7 cells; [9]): fully suppressed
O=c1c(-c2ccc(O)cc2)coc2cc(O)cc(O)c12 [Compound 3, genistein] | – | 0.03 ± 0.01 | 110 ± 11 | 79 ± 6 | 106±11 | not different | ≥ 10 | unable to prevent oxytosis | EC50 (Ishikawa cells; Homo sapiens, Ishikawa, read-out: Induction of Alkaline Phosphatase Expression (Ishikawa cells) EC50E2): 50 ± 20 nM; viability of glutamate-treated HT22 cells (% of glutamate-free cells) (HT22 cells [2]; 5 mM glutamate 24 h, 1 nM estradiol or 1 μM compound): ≤ 40%; reduction of LPS induction of TNFα mRNA expression (TNFα mRNA [3]; 3 μM, pre-treatment 24 h, LPS 100 ng/ml 1 h): 15%; suppression of LPS-stimulated TNFα mRNA expression (TNFα mRNA [3]; pre-incubated with 3 μM isoflavonoid prior to the stimulation): ineffective; inhibition of TNFα gene transcription in RAW 264.7 cells (TNFα mRNA [6]; pre-incubation with low micromolar concentrations): 30–40%
C[C@]12CC[C@@H]3c4ccc(O)cc4CC[C@H]3[C@@H]1CC[C@@H]2O [Estradiol, 17β-estradiol, reference compound] | not affected | 9.83 ± 0.44 | 100 ± 9 | 100 ± 19 | 105±3 | not different | ≥ 10 | unable to prevent oxytosis | induction of AlkP expression (Ishikawa cells; 0.1 nM estradiol, vs vehicle): 3.68 fold; induction of proliferation of MCF-7 cells (MCF-7 cells; 0.1 nM estradiol, vs vehicle): 1.80 fold; Differentiation of MC3T3-E1 cells, AlkP expression (%) (MC3T3-E1 cells [7]): 118±2 %; Differentiation of MC3T3-E1 cells, Alizarin red staining (%) (MC3T3-E1 cells [8]): 134±7 %; viability at 0.001 µM (HT22 cells [2]; Mus musculus, HT-22, 24 h, read-out: viability of glutamate-treated HT22 cells (% of glutamate-free cells)): ≤ 40%; IC50 (HT22 cells [5]; read-out: IC50, ER-dependent protection of glutamate-challenged HT22 cells from oxytosis): > 800 nM; suppression of TNFα mRNA expression and cytokine release after LPS (TNFα mRNA [6]; estrogen-free RAW 264.7 cells): unable to suppress; Induction of luciferase gene transcription through ERβ, HEK:ERβ cells, Agonism at 1μΜ (% of 0.1nM E2) (ERβ): 100 ± 12 % of 0.1nM E2
